Target: T1, CDK12 complexed with Cyclin K (Homo sapiens, UniProt Q9NYV4)
T1 construct: GST (N)
Assay: Alternative CDK Enzymatic Assays (HTRF, pre-incubation with compounds and 1 mM ATP), Example A2
Format: biochemical
Conditions: enzyme pre-incubated with compounds and 1 mM ATP for 60 minutes; reaction 120 minutes at 25° C.
Excerpt: Example A2. Alternative CDK Enzymatic Assays
The following activity of the CDK enzymes in complex with their respective cyclins we assayed: CDK1 complexed with Cyclin B1; CDK2 complexed with Cyclin E1; CDK4 complexed with Cyclin D1; CDK6 complexed with Cyclin D1; CDK6 complexed with Cyclin D3; CDK9 complexed with Cyclin T1; CDK7 complexed with Cyclin H/MAT1; CDK2 complexed with Cyclin A2; CDK5 complexed with p35; CDK12 complexed with Cyclin K; CDK13 complexed with Cyclin K. These in vitro enzyme activity are assayed using homogeneous time-resolved energy transfer (HTRF), which measures phosphorylation of a peptide substrate. The LANCER Ultra kinase assay (PerkinElmer) uses a ULight™-labeled EIF4E-binding protein 1 (THR37/46) peptide (DYSTTPGGTLFSTTPGTRI (SEQ ID NO: 1)) substrate and a Europium-labeled anti-phospho-4E-BP1 antibody (CDK2, CDK1, CDK4, CDK6, CDK9, CDK12, CDK13) or ULight™-labeled Myelin Basic Protein peptide (VTPRTPPP (SEQ ID NO: 2)) substrate and a Europium-labeled anti-phospho-MBP antibody (CDK7). Each CDK enzyme activity assays utilized human CDK co-expressed as N-terminal GST-tagged protein with its full length cyclin partner using a baculovirus expression system.
Enzyme was pre-incubated with compounds and 1 mM ATP for 60 minutes (CDK 1, 2, 4, 6, 9, 7, 12, 13) prior to the addition of ATP and Ulight-peptide (1 mM and 50 nM final, respectively), in assay buffer containing 50 mM HEPES pH 7.5, 1 mM EGTA, 10 mM MgCl2, 2 mM DTT, 0.05 mg/mL BSA, and 0.01% Tween 20. The reaction was then incubated for 120 minutes at 25° C. incubator. The reactions were stopped by the addition of EDTA and Europium labeled antibody, for a final concentration of 15 mM and 0.5-1.5 nM, respectively. HTRF signals were read after 15-120 minutes. A ratio of fluorescence transferred to the labeled substrate (665 nm) relative to fluorescence of the Europium donor (620 nm) represents the extent of phosphorylation. Ratios for treated wells were normalized to DMSO only (100% activity) and no enzyme (0% activity) controls. Normalized data was analyzed using a three or four parameter dose response curve to determine IC50 for each compound and are shown in Table B. Control reference inhibitors were included on each plate.

T1 sequence (Q9NYV4 whole entry): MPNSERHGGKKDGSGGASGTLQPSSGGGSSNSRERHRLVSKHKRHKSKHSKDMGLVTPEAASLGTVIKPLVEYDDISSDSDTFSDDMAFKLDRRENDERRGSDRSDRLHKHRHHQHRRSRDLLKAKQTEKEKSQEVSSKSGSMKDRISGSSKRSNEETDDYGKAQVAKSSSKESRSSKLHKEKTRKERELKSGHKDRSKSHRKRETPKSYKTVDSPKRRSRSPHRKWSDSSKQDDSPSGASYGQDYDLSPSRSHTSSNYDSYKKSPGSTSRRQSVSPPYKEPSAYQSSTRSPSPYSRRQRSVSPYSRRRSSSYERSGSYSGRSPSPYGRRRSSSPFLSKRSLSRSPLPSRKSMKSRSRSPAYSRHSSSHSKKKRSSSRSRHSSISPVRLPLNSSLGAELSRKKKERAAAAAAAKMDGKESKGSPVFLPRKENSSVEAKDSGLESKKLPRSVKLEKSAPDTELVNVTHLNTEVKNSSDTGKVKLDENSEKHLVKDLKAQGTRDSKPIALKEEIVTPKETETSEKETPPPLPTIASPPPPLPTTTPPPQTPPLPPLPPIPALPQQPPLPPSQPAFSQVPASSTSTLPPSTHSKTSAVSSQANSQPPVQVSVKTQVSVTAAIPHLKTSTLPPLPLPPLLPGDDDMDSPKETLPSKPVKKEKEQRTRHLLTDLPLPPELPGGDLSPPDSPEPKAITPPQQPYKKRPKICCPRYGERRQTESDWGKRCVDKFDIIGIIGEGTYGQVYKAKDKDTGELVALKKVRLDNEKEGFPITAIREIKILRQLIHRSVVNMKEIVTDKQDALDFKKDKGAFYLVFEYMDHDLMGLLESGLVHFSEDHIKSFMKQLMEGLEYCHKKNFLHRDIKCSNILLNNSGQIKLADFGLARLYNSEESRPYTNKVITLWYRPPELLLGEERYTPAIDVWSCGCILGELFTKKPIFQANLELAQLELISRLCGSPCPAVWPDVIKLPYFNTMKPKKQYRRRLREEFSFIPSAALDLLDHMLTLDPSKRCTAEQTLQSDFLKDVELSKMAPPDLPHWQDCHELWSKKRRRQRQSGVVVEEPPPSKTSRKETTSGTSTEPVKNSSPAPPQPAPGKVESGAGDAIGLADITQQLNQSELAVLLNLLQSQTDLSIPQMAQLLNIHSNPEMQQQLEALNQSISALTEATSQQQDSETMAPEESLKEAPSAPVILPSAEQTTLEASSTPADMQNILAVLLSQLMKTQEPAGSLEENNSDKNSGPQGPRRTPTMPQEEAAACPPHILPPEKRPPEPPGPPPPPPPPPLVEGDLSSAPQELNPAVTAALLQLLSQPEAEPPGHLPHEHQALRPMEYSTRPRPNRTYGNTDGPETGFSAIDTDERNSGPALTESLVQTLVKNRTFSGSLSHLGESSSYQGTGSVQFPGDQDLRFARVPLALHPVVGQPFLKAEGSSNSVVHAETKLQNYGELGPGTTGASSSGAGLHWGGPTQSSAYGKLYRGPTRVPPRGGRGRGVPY
T1 sequence (O75909 whole entry partner): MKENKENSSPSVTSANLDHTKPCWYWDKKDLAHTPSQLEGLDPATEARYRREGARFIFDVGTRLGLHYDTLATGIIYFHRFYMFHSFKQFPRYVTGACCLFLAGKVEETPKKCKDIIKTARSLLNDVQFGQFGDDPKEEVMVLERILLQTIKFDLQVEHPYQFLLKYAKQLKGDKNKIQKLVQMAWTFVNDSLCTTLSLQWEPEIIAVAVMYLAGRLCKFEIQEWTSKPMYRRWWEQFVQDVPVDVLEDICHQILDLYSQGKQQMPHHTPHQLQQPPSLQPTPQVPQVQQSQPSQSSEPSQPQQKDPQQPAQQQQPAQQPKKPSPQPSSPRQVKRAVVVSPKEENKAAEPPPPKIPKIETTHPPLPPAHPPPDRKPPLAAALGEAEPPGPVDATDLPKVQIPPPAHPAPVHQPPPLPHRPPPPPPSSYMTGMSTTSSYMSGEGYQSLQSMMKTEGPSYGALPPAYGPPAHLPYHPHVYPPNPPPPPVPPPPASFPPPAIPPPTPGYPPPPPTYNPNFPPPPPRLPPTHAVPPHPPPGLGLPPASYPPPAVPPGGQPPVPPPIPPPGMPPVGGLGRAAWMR

| Compound | IC50 |
| --- | --- |
| C=CC(=O)N1CCN(c2ccc3c(c2)nc(N2CCC[C@@H](Nc4ncc(C(F)(F)F)cn4)C2)n3C)CC1 [Example 128, (R)-1-(4-(1-Methyl-2-(3-((5-(trifluoromethyl)pyrimidin-2-yl)amino)piperidin-1-yl)-1H-benzo[d]imidazol-5-yl)piperazin-1-yl)prop-2-en-1-one] | 50 to 500 nM |
| C=CC(=O)Nc1ccc2c(c1)nc(N1CCC[C@@H](Nc3ncc(C#N)s3)C1)n2C [Example 129, (R)—N-(2-(3-((5-Cyanothiazol-2-yl)amino)piperidin-1-yl)-1-methyl-1H-benzo[d]imidazol-5-yl)acrylamide] | < 50 nM |
| C=CC(=O)Nc1ccc2c(c1)nc(N1CCC[C@@H](Nc3ncc(C(F)(F)F)s3)C1)n2C [Example 130, (R)—N-(1-Methyl-2-(3-((5-(trifluoromethyl)thiazol-2-yl)amino)piperidin-1-yl)-1H-benzo[d]imidazol-5-yl)acrylamide] | < 50 nM |
| C=CC(=O)Nc1cc2nc(N3C[C@H](F)C[C@@H](Nc4ncc(C(F)(F)F)cn4)C3)n(C)c2cc1CC [Example 131, N-(6-Ethyl-2-((3R,5R)-3-fluoro-5-((5-(trifluoromethyl)pyrimidin-2-yl)amino)piperidin-1-yl)-1-methyl-1H-benzo[d]imidazol-5-yl)acrylamide] | 50 to 500 nM |
| C=CC(=O)Nc1cc2nc(N3C[C@H](F)C[C@@H](Nc4ncc(C(F)(F)F)cn4)C3)n(C)c2cc1F [Example 132, N-(6-Fluoro-2-((3R,5R)-3-fluoro-5-((5-(trifluoromethyl)pyrimidin-2-yl)amino)piperidin-1-yl)-1-methyl-1H-benzo[d]imidazol-5-yl)acrylamide] | < 50 nM |
| C=CC(=O)Nc1cc2nc(N3C[C@H](F)C[C@@H](Nc4ncc(C(F)(F)F)cn4)C3)n(C)c2cc1COC [Example 133, N-(2-((3R,5R)-3-Fluoro-5-((5-(trifluoromethyl)pyrimidin-2-yl)amino)piperidin-1-yl)-6-(methoxymethyl)-1-methyl-1H-benzo[d]imidazol-5-yl)acrylamide] | < 50 nM |
| C=CC(=O)Nc1cc2nc(N3C[C@H](F)C[C@@H](Nc4ncc(C(F)(F)F)cn4)C3)n(C)c2cc1Cl [Example 134, N-(6-Chloro-2-((3R,5R)-3-fluoro-5-((5-(trifluoromethyl)pyrimidin-2-yl)amino)piperidin-1-yl)-1-methyl-1H-benzo[d]imidazol-5-yl)acrylamide] | < 50 nM |
| [2H]C([2H])([2H])c1cc2c(cc1NC(=O)C=C)nc(N1C[C@H](F)C[C@@H](Nc3ncc(C(F)(F)F)cn3)C1)n2C [Example 135, N-(2-((3R,5R)-3-Fluoro-5-((5-(trifluoromethyl)pyrimidin-2-yl)amino)piperidin-1-yl)-1-methyl-6-(methyl-d3)-1H-benzo[d]imidazol-5-yl)acrylamide] | < 50 nM |
| C=CC(=O)Nc1cc2nc(N3C[C@H](F)C[C@@H](Nc4ncc(C(F)(F)F)cn4)C3)n(C)c2cc1N1CCCC1 [Example 136, N-(2-((3R,5R)-3-Fluoro-5-((5-(trifluoromethyl)pyrimidin-2-yl)amino)piperidin-1-yl)-1-methyl-6-(pyrrolidin-1-yl)-1H-benzo[d]imidazol-5-yl)acrylamide] | < 50 nM |
| C=CC(=O)Nc1cc2nc(N3C[C@H](F)C[C@@H](Nc4ncc(C(F)(F)F)cn4)C3)n(C)c2cc1C(=O)N1CCOCC1 [Example 137, N-(2-((3R,5R)-3-Fluoro-5-((5-(trifluoromethyl)pyrimidin-2-yl)amino)piperidin-1-yl)-1-methyl-6-(morpholine-4-carbonyl)-1H-benzo[d]imidazol-5-yl)acrylamide] | 50 to 500 nM |
| C=CC(=O)Nc1cc2nc(N3C[C@H](F)C[C@@H](Nc4ncc(C(F)(F)F)cn4)C3)n(C)c2cc1C(=O)N1CCCC1 [Example 138, N-(2-((3R,5R)-3-Fluoro-5-((5-(trifluoromethyl)pyrimidin-2-yl)amino)piperidin-1-yl)-1-methyl-6-(pyrrolidine-1-carbonyl)-1H-benzo[d]imidazol-5-yl)acrylamide] | 50 to 500 nM |
| C=CC(=O)Nc1cc2nc(N3C[C@H](F)C[C@@H](Nc4ncc(C(F)(F)F)cn4)C3)n(C)c2cc1N1CCOCC1 [Example 139, N-(2-((3R,5R)-3-Fluoro-5-((5-(trifluoromethyl)pyrimidin-2-yl)amino)piperidin-1-yl)-1-methyl-6-morpholino-1H-benzo[d]imidazol-5-yl)acrylamide] | 50 to 500 nM |
| C=CC(=O)Nc1cc2nc(N3C[C@H](F)C[C@@H](Nc4ncc(C(F)(F)F)cn4)C3)n(C)c2cc1C#N [Example 140, N-(6-Cyano-2-((3R,5R)-3-fluoro-5-((5-(trifluoromethyl)pyrimidin-2-yl)amino)piperidin-1-yl)-1-methyl-1H-benzo[d]imidazol-5-yl)acrylamide] | < 50 nM |
| C=CC(=O)Nc1cc2nc(N3C[C@H](F)C[C@@H](Nc4ncc(C(F)(F)F)cn4)C3)n(C)c2cc1Br [Example 141, N-(6-Bromo-2-((3R,5R)-3-fluoro-5-((5-(trifluoromethyl)pyrimidin-2-yl)amino)piperidin-1-yl)-1-methyl-1H-benzo[d]imidazol-5-yl)acrylamide] | < 50 nM |
| C=CC(=O)Nc1ccc2c(c1)nc(N1CCC[C@@H](Nc3ncc(C#N)c(N4CC[C@@H](N(C)C)C4)n3)C1)n2C [Example 142, N-(2-((R)-3-((5-cyano-4-((R)-3-(dimethylamino)pyrrolidin-1-yl)pyrimidin-2-yl)amino)piperidin-1-yl)-1-methyl-1H-benzo[d]imidazol-5-yl)acrylamide] | < 50 nM |
| C=CC(=O)Nc1ccc2c(c1)nc(N1CCC[C@@H](Nc3ncc(C#N)cn3)C1)n2C [Example 143, (R)—N-(2-(3-((5-Cyanopyrimidin-2-yl)amino)piperidin-1-yl)-1-methyl-1H-benzo[d]imidazol-5-yl)acrylamide] | < 50 nM |
| C=CC(=O)Nc1c(C)cc2c(nc(N3C[C@H](F)C[C@@H](Nc4ncc(C(F)(F)F)cn4)C3)n2C)c1C [Example 144, N-(2-((3R,5R)-3-Fluoro-5-((5-(trifluoromethyl)pyrimidin-2-yl)amino)piperidin-1-yl)-1,4,6-trimethyl-1H-benzo[d]imidazol-5-yl)acrylamide] | > 500 nM |
| C=CC(=O)Nc1c(C)cc2c(nc(N3C[C@H](F)C[C@@H](Nc4ncc(C#N)cn4)C3)n2C)c1Br [Example 145, N-(4-Bromo-2-((3R,5R)-3-((5-cyanopyrimidin-2-yl)amino)-5-fluoropiperidin-1-yl)-1,6-dimethyl-1H-benzo[d]imidazol-5-yl)acrylamide] | 50 to 500 nM |
| C=CC(=O)Nc1c(C)cc2c(nc(N3C[C@H](F)C[C@@H](Nc4ncc(C(F)(F)F)cn4)C3)n2C)c1Br [Example 146, N-(4-Bromo-2-((3R,5R)-3-fluoro-5-((5-(trifluoromethyl)pyrimidin-2-yl)amino)piperidin-1-yl)-1,6-dimethyl-1H-benzo[d]imidazol-5-yl)acrylamide] | 50 to 500 nM |
| C=CC(=O)Nc1cc2nc(N3C[C@H](O)C[C@@H](Nc4ncc(C#N)cn4)C3)n(C)c2cc1C [Example 147, N-(2-((3R,5R)-3-((5-Cyanopyrimidin-2-yl)amino)-5-hydroxypiperidin-1-yl)-1,6-dimethyl-1H-benzo[d]imidazol-5-yl)acrylamide] | 50 to 500 nM |
| C=CC(=O)Nc1cc2nc(N3CC[C@@H](O)[C@@H](Nc4ncc(C(F)(F)F)cn4)C3)n(C)c2cc1C [Example 148, N-(2-((3S,4R)-4-Hydroxy-3-((5-(trifluoromethyl)pyrimidin-2-yl)amino)piperidin-1-yl)-1,6-dimethyl-1H-benzo[d]imidazol-5-yl)acrylamide] | > 500 nM |
| C=CC(=O)Nc1cc2nc(N3CC[C@H](O)[C@@H](Nc4ncc(C(F)(F)F)cn4)C3)n(C)c2cc1C [Example 149, N-(2-((3S,4S)-4-Hydroxy-3-((5-(trifluoromethyl)pyrimidin-2-yl)amino)piperidin-1-yl)-1,6-dimethyl-1H-benzo[d]imidazol-5-yl)acrylamide] | > 500 nM |
| C=CC(=O)Nc1cc2nc(N3CCC[C@@H](Nc4ncc(C(F)(F)F)cn4)C3)n(C)c2cc1C1CC1 [Example 150, (R)—N-(6-Cyclopropyl-1-methyl-2-(3-((5-(trifluoromethyl)pyrimidin-2-yl)amino)piperidin-1-yl)-1H-benzo[d]imidazol-5-yl)acrylamide] | < 50 nM |
| C=CC(=O)Nc1ccc2c(c1)nc(N1CCC[C@@H](Nc3cc(OC)c(C#N)cn3)C1)n2C [Example 151, (R)—N-(2-(3-((5-Cyano-4-methoxypyridin-2-yl)amino)piperidin-1-yl)-1-methyl-1H-benzo[d]imidazol-5-yl)acrylamide] | < 50 nM |
